Data reported in patent publication US20040106683A1, “Uses of benzylideneamino guanidines as ligands to the melnocortin receptors” (priority 2001, published 2004).
Structures can show the parent of a compound that is named as a salt.

How the values were obtained:
[1] = biological target: T1, recombinant human MC3 receptor (Homo sapiens, UniProt P41968); assay: Affinity for the MC3-receptor, displacement of 125I-NDP-MSH in transfected Sf9 or COS cells; conditions: nb = non-binding, i.e. no affinity, read-out: Affinity for MC-receptors, Ki, MC3
T1 construct: expressed in transfected cells; host or cells: Sf9 insect cells or COS cells
Procedure: (§1) Test 2. Affinity for the MC3-Receptors, the MC4-Receptors and the MC5-Receptors
(§2) Essentially, the affinity of the compounds for the different melanocortin receptors were determined by using either insect cells (Sf9) or COS cells, which were transfected with recombinant human MC3, MC4 or MC5 receptors. For the determination of the affinity for the MC1 receptor, B16 mouse melanoma cells were used, which endogenously express the (mouse) MC1 receptor.
(§3) Incubation was performed in 96-well plates, using 50,000 cells/well (Sf9 or COS cells) up to 200,000 cells/well (mouse melanoma cells).
(§4) After the incubation, the cells were washed twice to get rid of the excess tracer and compound, and the cells were lysed with 0.1 M NaOH. The lysate was counted in a gamma-counter, binding was calculated and the affinity determined.

[2] = biological target: T2, MC1 receptor (Mus musculus, UniProt Q01727); assay: Affinity for the MC1-receptor, displacement of 125I-NDP-MSH in B16 mouse melanoma cells; conditions: endogenous mouse MC1, nb = non-binding, i.e. no affinity, read-out: Affinity for MC-receptors, Ki, MC1
T2 construct: B16 mouse melanoma cells were used, which endogenously express the (mouse) MC1 receptor; endogenous in cells; host or cells: B16 mouse melanoma cells
Procedure: Test 1. Affinity for the MC1-Receptor
as §2, §3, §4

[3] = biological target: T3, recombinant human MC4 receptor (Homo sapiens, UniProt P32245); assay: Affinity for the MC4-receptor, displacement of 125I-NDP-MSH in transfected Sf9 or COS cells; conditions: nb = non-binding, i.e. no affinity, read-out: Affinity for MC-receptors, Ki, MC4
T3 construct: expressed in transfected cells; host or cells: Sf9 insect cells or COS cells
Procedure: as §1, §2, §3, §4

[4] = biological target: T4, recombinant human MC5 receptor (Homo sapiens, UniProt P33032); assay: Affinity for the MC5-receptor, displacement of 125I-NDP-MSH in transfected Sf9 or COS cells; conditions: nb = non-binding, i.e. no affinity, read-out: Affinity for MC-receptors, Ki, MC5
T4 construct: expressed in transfected cells; host or cells: Sf9 insect cells or COS cells
Procedure: as §1, §2, §3, §4

T2 sequence (Q01727 whole entry): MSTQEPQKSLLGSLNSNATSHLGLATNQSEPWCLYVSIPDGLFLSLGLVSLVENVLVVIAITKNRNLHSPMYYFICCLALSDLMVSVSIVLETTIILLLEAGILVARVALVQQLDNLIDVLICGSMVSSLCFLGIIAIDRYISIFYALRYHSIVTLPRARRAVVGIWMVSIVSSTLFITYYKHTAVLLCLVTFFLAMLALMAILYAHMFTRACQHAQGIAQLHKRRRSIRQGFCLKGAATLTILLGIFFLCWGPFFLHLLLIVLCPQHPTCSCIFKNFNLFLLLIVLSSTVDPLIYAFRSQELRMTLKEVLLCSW
T1 sequence (P41968 whole entry): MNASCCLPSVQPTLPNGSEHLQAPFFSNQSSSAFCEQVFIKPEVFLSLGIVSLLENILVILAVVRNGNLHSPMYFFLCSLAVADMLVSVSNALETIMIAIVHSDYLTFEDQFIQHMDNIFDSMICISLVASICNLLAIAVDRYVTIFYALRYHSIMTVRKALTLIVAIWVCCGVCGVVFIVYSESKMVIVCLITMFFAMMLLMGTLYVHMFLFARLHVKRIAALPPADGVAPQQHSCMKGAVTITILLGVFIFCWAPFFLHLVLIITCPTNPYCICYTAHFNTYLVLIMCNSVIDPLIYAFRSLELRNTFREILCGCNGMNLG
T3 sequence (P32245 whole entry): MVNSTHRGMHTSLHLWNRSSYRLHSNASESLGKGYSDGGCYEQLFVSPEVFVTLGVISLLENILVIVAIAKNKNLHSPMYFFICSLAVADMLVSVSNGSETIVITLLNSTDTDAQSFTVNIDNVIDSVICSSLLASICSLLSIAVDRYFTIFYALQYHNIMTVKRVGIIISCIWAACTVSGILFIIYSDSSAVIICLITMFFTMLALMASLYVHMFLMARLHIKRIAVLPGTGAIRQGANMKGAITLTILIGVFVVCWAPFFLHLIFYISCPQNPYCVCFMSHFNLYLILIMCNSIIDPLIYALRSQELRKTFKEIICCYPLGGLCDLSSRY
T4 sequence (P33032 whole entry): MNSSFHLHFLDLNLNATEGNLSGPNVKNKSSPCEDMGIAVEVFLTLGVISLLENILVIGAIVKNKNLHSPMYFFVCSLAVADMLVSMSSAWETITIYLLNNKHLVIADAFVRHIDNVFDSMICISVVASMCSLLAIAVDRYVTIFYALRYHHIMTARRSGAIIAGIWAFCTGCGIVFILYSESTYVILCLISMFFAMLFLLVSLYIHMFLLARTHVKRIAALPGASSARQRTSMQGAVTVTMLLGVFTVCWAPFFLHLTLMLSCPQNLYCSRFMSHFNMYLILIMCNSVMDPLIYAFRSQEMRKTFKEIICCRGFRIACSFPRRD

Structure (SMILES)	melting point	Ki [1]	Ki [2]	Ki [3]	Ki [4]
N=C(N)NN=Cc1ccccc1Br (as salt: HCl) [1:14, N-(2-Bromobenzylideneamino)guanidine]	197 to 201 °C	–	–	–	–
N=C(N)NN=Cc1cc(O)ccc1Br (as salt: HCl) [1:15, N-(2-Bromo-5-Hydroxybenzylideneamino)guanidine]	223 to 228 °C (dec.)	–	–	–	–
N=C(N)NN=Cc1ccccc1Br [1:14, N-(2-Bromobenzylideneamino)guanidine]	–	74.6 µM	0.6 µM	0.9 µM	–
N=C(N)NN=Cc1cccc(Br)c1 (as salt: salt) [1:21, N-(3-Bromobenzylideneamino)guanidine]	160 to 161.5 °C	–	–	–	–

Now from value to compound:

melting point	Ki [1]	Ki [2]	Ki [3]	Ki [4]	Structure (SMILES)
205 to 212 °C (dec.)	–	–	–	–	N=C(N)NN=Cc1cc2c(cc1[N+](=O)[O-])OCO2 (as salt: salt) [1:17, N-(4,5-Methylenedioxy-2-nitrobenzylideneamino)guanidine]
–	> 200 µM	2.1 µM	28 µM	> 200 µM	N=C(N)NN=Cc1cc2c(cc1[N+](=O)[O-])OCO2 [1:17, N-(4,5-Methylenedioxy-2-nitrobenzylideneamino)guanidine]
–	46 µM	1.2 µM	5.4 µM	30.6 µM	N=C(N)NN=Cc1cccc(Br)c1 [1:21, N-(3-Bromobenzylideneamino)guanidine]
–	–	1.3 µM	6.8 µM	68 µM	N=C(N)NN=Cc1cc(O)ccc1Br [1:15, N-(2-Bromo-5-Hydroxybenzylideneamino)guanidine]
